Reference: patent EP2050747A1, “Dimers of harmol or of its derivatives and uses thereof” (BioAlliance Pharma, priority 2007, dated 2009)

Columns and labels:
B16F10 [1] = experiment: MTT assay (cellular viability); type: cell-based, Murine; details: for IC50: Mus musculus, B16-F10, 72 h, B16F10, 3 days
Experimental: (§1) Growth studies were performed using the [3-(4,5 dimethylthiazol-2-yl)-2,5-diphenyl-2H-tetrazolium bromide] (Sigma) colorimetric assay.
(§2) About 1500 cells were seeded in a 96-well culture plate 24 hours before adding increasing concentrations of tested molecule. The plate was incubated at 37°C for 3 days. 10 µl MTT stock solution (5 mg/ml in phosphate buffer saline) was added to 90 µl of complete medium in each well, the incubation was continued for 3 h at 37°C. 100 µl of lysis buffer (10 % sodium dodecyl sulfate, 1% HCl 1N; pH 4.7) was added to each well, and the plate was incubated overnight. The absorbance was determined using an Integrated EIA Management System (Labsystem) at a wavelength of 570 nm. The proliferation rates were calculated from the OD readings using the untreated cells as 100%.

[2] = system: melanoma cell line B16F10; experiment: Wound healing assay (cell motility); type: cell-based, Murine; details: B16F10, non cytotoxic concentration (25-100 nM), 24 h after wound formation, Figure 6
Experimental: Harmol dimers have been tested in a cell motility assay: the behaviour of tumoral cells treated by these dimers was compared with non-treated tumoral cells in a wound healing assay. Wound healing assay was performed to evaluate the effect of tested molecules on motility of malignant NIH 3T3 EF cells and melanoma cell line B16F10. About 100 000-200 000 cells were seeded in a 6-well culture plate and the tested molecule was added 24 hours later. Cells were grown for 3 days to confluence about 90-95% and small scratch-wounds (1 mm width) were made with a pipette tip. […] Then, the cells were fixed for 10 min in PBS containing 3.7% formaldehyde at 4°C.

F-actin = experiment: Actin dynamics, fluorescence anisotropy assay in tumor cell cytosolic fraction; type: biochemical; parameters: Kobs: unit not given beside the values; details: for Kobs: rate constant of F-actin elongation; for actin polymerisation kinetics compared with normal NIH 3T3 cytosolic fraction: tumoral NIH 3T3 EF cytosolic fraction; for F actin steady state value (Δ mA max), effect in words / F actin elongation rate constant (Kobs), effect in words: added to assay medium, versus untreated; for F actin steady state value (Δ mA max), effect in words: NIH 3T3 EF cytosolic fraction or lysate, harmol at 10 µM
Experimental: Actin dynamics have been quantified in tumor cell cytosolic fraction using the fluorescence anisotropy assay which gains access to rate constant of F-actin elongation (kobs) and steady state concentration of F-actin (Δ mA max).
All reactions were carried out at 22°C and fluorescence anisotropy signal was recovered at 520 nm with excitation at 490 nm in a Beacon 2000 (Panvera). Alexa 488 actin (Molecular Probes) was centrifuged at 35 000 rpm for 2 h at 4°C to sediment residual actin polymers in a Beckman L5-50B ultracentrifuge. […] 80% of the supernatant was withdrawn; the concentration was defined through fluorescence measurements (excitation at 490 nm and signal recovering at 520 nm). The ultracentrifuged actin concentration was calculated using the non ultracentrifuged Alexa 488 actin as a standard. The supernatant was aliquoted, frozen in liquid nitrogen and stored at -80°C.
Before experiment, an aliquot of ultracentrifuged Alexa 488 actin was diluted to a concentration of 1 mg/ml in G buffer (5 mM Tris pH 8.1, 2 mM CaCl2, 0.2 mM DTT, 0.2 mM ATP). 3 µl of diluted Alexa 488 actin was mixed in 168 µl of G buffer and actin monomers anisotropy was measured before the addition of 4 µl of polymerisation buffer (2.5 M KCI, 50 mM MgCl2, 25 mM ATP), 5 µl of G buffer in the presence or in the absence of the chemical molecule and 20 µl cellular extract of normal NIH 3T3 cells or malignant NIH 3T3 EF cells at 2 mg/ml. The final concentration of Alexa 488 actin was 4 nM. The ratio of unlabelled to labelled actin was about 140/4 nM. Measurements were made each 10 sec for 200 sec. Actin monomers anisotropy value was subtracted, yielding the anisotropy enhancement (Δ mA). The data were fitted with the equation Y= Ymax . [1- exp(- K.X)]. The curves start at zero and ascend to Ymax that corresponds to the steady state anisotropy value (Δ mA eq), with a rate constant K. Y is anisotropy values of which monomers anisotropy is substracted and X is the time (Assessment of cellular actin dynamics by measurement of fluorescence anisotropy. Anal Biochem. 2007 Aug 1;367(1):95-103. Epub 2007 Apr 5. Spitz et al.).

NIH 3T3 EF cells = experiment: Rescue of F-actin network, FITC-phalloidin fluorescence microscopy; type: cell-based; details: non cytotoxic concentration (100 nM), three days, Figure 4
Experimental: Malignant NIH 3T3 EF cells were seeded onto glass cover slips at a density of 2000 cells per cm^2. The next day, tested molecules were applied to NIH 3T3 EF cells at various non cytotoxic concentrations. Three days later, cells were fixed for 10 min in PBS containing 3.7 % formaldehyde at 4°C before examination with a fluorescence microscope. The formaldehyde solution was neutralized with 50 mM NH4Cl. Permeabilisation was carried out for 4 min with 0.4% Triton X-100 in PBS. Cells were incubated for 1 h at room temperature with blocking buffer (3% bovine serum albumin in PBS) and then for 1 h with FITC-phalloidin (Sigma) which stabilizes structures by inhibiting phosphate release from ADP-Pi-actin filaments and allows visualization of actin filaments by fluorescence microscopy. The cover slips were mounted on microscope slides using a solution of glycerol 50%, DABCO 2.5% in PBS as embedding medium.

[3] = system: malignant NIH 3T3 EF cells; experiment: Wound healing assay (cell motility); type: cell-based; details: NIH 3T3 EF, non cytotoxic concentration (25-100 nM), 10 h after wound formation, Figure 5
Experimental: Harmol dimers have been tested in a cell motility assay: the behaviour of tumoral cells treated by these dimers was compared with non-treated tumoral cells in a wound healing assay. Wound healing assay was performed to evaluate the effect of tested molecules on motility of malignant NIH 3T3 EF cells and melanoma cell line B16F10. About 100 000-200 000 cells were seeded in a 6-well culture plate and the tested molecule was added 24 hours later. Cells were grown for 3 days to confluence about 90-95% and small scratch-wounds (1 mm width) were made with a pipette tip. Cell debris were removed, then the cultures were incubated in complete medium for 10 h in the presence of the same concentration of the tested molecule. Then, the cells were fixed for 10 min in PBS containing 3.7% formaldehyde at 4°C.

B16F10 [4] = experiment: Cloning assay, colony formation in semi solid medium (methylcellulose); type: cell-based, Murine; details: for IC50: Mus musculus, B16-F10, 168 h, B16F10, one week, read-out: Inhibition of colony formation (methylcellulose) IC50
Experimental: (§3) Cells were embedded in complete culture medium supplemented with 0,8% methylcellulose (Methocel MC4000, Sigma), seeded in triplicate into 35-mm dishes (Greiner Bio-one Ref 627102, Dominique Dutscher) and incubated at 37 °C in a humidified 5% CO2 atmosphere.
(§4) The number of cells seeded was 1000 cells per dish. After one week (B16F10 cell line) to 3 weeks (NIH 3T3 EF cell line), macroscopic clones were counted.

NIH 3T3 EF [5] = experiment: as above; type: cell-based; details: for inhibitory activity on NIH 3T3 EF colony formation in methylcellulose semi-solid medium: Figure 2; for IC50: Mus musculus, NIH3T3, 504 h, NIH 3T3 EF, 3 weeks, read-out: Inhibition of colony formation (methylcellulose) IC50
Experimental: as §3, §4

NIH 3T3 EF [6] = experiment: MTT assay (cellular viability); type: cell-based; details: Mus musculus, NIH3T3, 72 h, 3 days
Experimental: as §1, §2

[7] = 10 µM, NIH 3T3 EF extract, steady state concentration of F-actin (anisotropy enhancement)

Compound | IC50 (B16F10 [1]) | inhibition of malignant cell motility [2] | Kobs (F-actin; 10 µM, NIH 3T3 EF extract) | Δ mA max (F-actin; [7]) | actin polymerisation kinetics compared with normal NIH 3T3 cytosolic fraction (F-actin; 10 µM) | F actin steady state value (Δ mA max), effect in words (F-actin) | F actin elongation rate constant (Kobs), effect in words (F-actin; NIH 3T3 EF cytosolic fraction) | reorganisation of the actin network in tumor cells (NIH 3T3 EF cells) | inhibition of malignant cell motility [3] | inhibitory activity on B16F10 colony formation in methylcellulose semi-solid medium (B16F10 [4]; Figure 3) | IC50 (B16F10 [4]) | inhibitory activity on NIH 3T3 EF colony formation in methylcellulose semi-solid medium (NIH 3T3 EF [5]) | IC50 (NIH 3T3 EF [5]) | IC50 (NIH 3T3 EF [6]) | F actin steady state value compared with NIH 3T3 cytosolic fraction (F-actin; 10 µM, NIH 3T3 EF cytosolic fraction) | F actin elongation rate constant compared with NIH 3T3 cytosolic fraction (F-actin; NIH 3T3 EF cytosolic fraction, BA016FZ527 at 10 µM, harmine concentration not given) | cytotoxicity as measured by MTT test (B16F10 [1]; at 3 µM) | Δ mA max (F-actin; 10 µM, tumoral NIH3T3 EF cellular lysate) | inhibitory activity on B16F10 colony formation in methylcellulose semi-solid medium (B16F10 [4]; at 3 µM)
Cc1nccc2c1[nH]c1cc(OCC3OC(C)(C)OC3COc3ccc4c(c3)[nH]c3c(C)nccc34)ccc12 (stereo not drawn) [BA016DD1183, 7,7'-[(2,2-dimethyl-1,3-dioxolane-4,5-diyl)bis(methyleneoxy)]bis(1-methyl-9H-β-carboline)] | 0.75 µM | inhibited | 0,158 | 61 | similar | increased | increased | able to reorganise the actin network | inhibited | marked inhibitory activity | 0.125 µM | marked inhibitory activity | 0.3 µM | 1 µM | – | – | – | – | –
COc1ccc2c3ccnc(C)c3n(CCCCCn3c4cc(OC)ccc4c4ccnc(C)c43)c2c1 [BA016FZ518, 9,9'-pentane-1,5-diylbis(7-methoxy-1-methyl-9H-β-carboline)] | 3 µM | inhibited | 0,104 | 59 | similar | increased | increased | able to reorganise the actin network | inhibited | marked inhibitory activity | 0.04 µM | marked inhibitory activity | 0.25 µM | 0.75 µM | – | – | – | – | –
Cc1nccc2c1[nH]c1cc(OCCCOc3ccc4c(c3)[nH]c3c(C)nccc34)ccc12 [BA016FZ527, 7,7'-[Propane-1,3-diylbis(oxy)]bis(1-methyl-9H-β-carboline)] | 1.5 µM | inhibited | 0,132 | 83 | – | increased | increased | able to reorganise the actin network | inhibited | marked inhibitory activity | 0.175 µM | marked inhibitory activity | 0.5 µM | 1 µM | higher | higher | – | – | –
Cc1nccc2c1[nH]c1cc(O)ccc12 [harmol] | – | – | – | – | – | No increase | – | – | – | – | – | – | – | – | – | – | non-cytotoxic concentration | 42 mA | did not display an inhibitory activity
